Source: the NIST ThermoML archive (doi:10.1016/j.jct.2014.07.018)
Values joined by “and” are separate entries in the source; they are usually repeats but may differ in a detail not shown here. Equal values may be shown once.

Experiment: molar heat capacity at constant pressure
Conditions: 101.33 kPa, Vacuum adiabatic calorimetry

CCC[n+]1ccn(C)c1.[Br-] [1-methyl-3-propylimidazolium bromide]
molar heat capacity at constant pressure
Conditions | Crystal 2 | Glass
71.72 K | – | 90.74 J/K/mol
73.18 K | 86.57 J/K/mol | –
73.83 K | – | 92.54 J/K/mol
75.5 K | 88.58 J/K/mol | –
75.93 K | – | 94.45 J/K/mol
77.81 K | 90.59 J/K/mol | –
78.04 K | – | 96.34 J/K/mol
78.3 K | 90.96 J/K/mol | –
78.68 K | 91.25 J/K/mol | –
79.18 K | – | 97.3 J/K/mol
80 K | 92.3 J/K/mol | 97.87 J/K/mol
80.13 K | 92.58 J/K/mol | –
80.17 K | – | 98.2 J/K/mol
80.36 K | 92.62 J/K/mol | –
80.94 K | 93.01 J/K/mol | –
81.21 K | – | 98.9 J/K/mol
82.27 K | 94.04 J/K/mol | –
82.29 K | – | 99.76 J/K/mol
82.46 K | 94.26 J/K/mol | –
82.87 K | 94.47 J/K/mol | –
83.14 K | – | 100.3 J/K/mol
84.2 K | 95.47 J/K/mol | –
84.42 K | – | 101.2 J/K/mol
84.8 K | 95.84 J/K/mol and 95.9 J/K/mol | –
85.07 K | – | 101.7 J/K/mol
86.13 K | 96.85 J/K/mol | –
86.73 K | 97.28 J/K/mol | –
87.01 K | – | 103.1 J/K/mol
88.08 K | 98.24 J/K/mol | –
88.67 K | 98.67 J/K/mol | –
88.94 K | – | 104.6 J/K/mol
90 K | 99.64 J/K/mol | 105.4 J/K/mol
90.04 K | 99.66 J/K/mol | –
90.6 K | 100 J/K/mol | –
90.88 K | – | 106 J/K/mol
92.01 K | 101.1 J/K/mol | –
92.54 K | 101.4 J/K/mol | –
92.82 K | – | 107.4 J/K/mol
93.99 K | 102.5 J/K/mol | –
94.48 K | 102.8 J/K/mol | –
94.77 K | – | 108.7 J/K/mol
95.98 K | 103.8 J/K/mol | –
96.43 K | 104.1 J/K/mol | –
96.72 K | – | 110.1 J/K/mol
97.97 K | 105.1 J/K/mol | –
98.38 K | 105.4 J/K/mol | –
98.66 K | – | 111.4 J/K/mol
99.98 K | 106.5 J/K/mol | –
100 K | 106.4 J/K/mol | 112.3 J/K/mol
100.34 K | 106.7 J/K/mol | –
100.62 K | – | 112.7 J/K/mol
101.99 K | 107.7 J/K/mol | –
102.29 K | 107.9 J/K/mol | –
102.57 K | – | 114 J/K/mol
104.01 K | 109 J/K/mol | –
104.25 K | 109.1 J/K/mol | –
104.53 K | – | 115.3 J/K/mol
106.04 K | 110.2 J/K/mol | –
106.21 K | 110.3 J/K/mol | –
106.49 K | – | 116.5 J/K/mol
108.08 K | 111.5 J/K/mol | –
108.17 K | 111.6 J/K/mol | –
108.45 K | – | 117.8 J/K/mol
110 K | 112.6 J/K/mol | 118.7 J/K/mol
110.12 K | 112.7 J/K/mol | –
110.14 K | 112.7 J/K/mol | –
110.41 K | – | 119 J/K/mol
112.1 K | 113.9 J/K/mol | –
112.17 K | 113.9 J/K/mol | –
112.38 K | – | 120.2 J/K/mol
114.07 K | 115 J/K/mol | –
114.22 K | 115.1 J/K/mol | –
114.35 K | – | 121.4 J/K/mol
116.04 K | 116.2 J/K/mol | –
116.28 K | 116.3 J/K/mol | –
116.32 K | – | 122.6 J/K/mol
118.01 K | 117.3 J/K/mol | –
118.29 K | – | 123.8 J/K/mol
118.34 K | 117.5 J/K/mol | –
119.98 K | 118.4 J/K/mol | –
120 K | 118.4 J/K/mol | 124.8 J/K/mol
120.27 K | – | 124.9 J/K/mol
120.41 K | 118.7 J/K/mol | –
121.96 K | 119.4 J/K/mol | –
122.24 K | – | 126.1 J/K/mol
122.48 K | 119.8 J/K/mol | –
123.94 K | 120.6 J/K/mol | –
124.22 K | – | 127.2 J/K/mol
124.56 K | 121 J/K/mol | –
125.91 K | 121.7 J/K/mol | –
126.2 K | – | 128.4 J/K/mol
126.63 K | 122.1 J/K/mol | –
127.9 K | 122.8 J/K/mol | –
128.18 K | – | 129.5 J/K/mol
128.72 K | 123.2 J/K/mol | –
129.88 K | 123.8 J/K/mol | –
130 K | 123.9 J/K/mol | 130.6 J/K/mol
130.17 K | – | 130.7 J/K/mol
130.8 K | 124.4 J/K/mol | –
131.86 K | 124.9 J/K/mol | –
132.15 K | – | 131.8 J/K/mol
132.89 K | 125.5 J/K/mol | –
133.84 K | 126 J/K/mol | –
134.14 K | – | 132.9 J/K/mol
134.99 K | 126.6 J/K/mol | –
135.84 K | 127 J/K/mol | –
136.13 K | – | 134 J/K/mol
137.08 K | 127.7 J/K/mol | –
137.83 K | 128 J/K/mol | –
138.12 K | – | 135.2 J/K/mol
139.18 K | 128.7 J/K/mol | –
139.83 K | 129.1 J/K/mol | –
140 K | 129.2 J/K/mol | 136.2 J/K/mol
140.12 K | – | 136.3 J/K/mol
141.28 K | 129.8 J/K/mol | –
141.83 K | 130.1 J/K/mol | –
142.11 K | – | 137.4 J/K/mol
143.39 K | 130.9 J/K/mol | –
143.83 K | 131.1 J/K/mol | –
144.11 K | – | 138.5 J/K/mol
145.49 K | 132 J/K/mol | –
145.83 K | 132.1 J/K/mol | –
146.11 K | – | 139.7 J/K/mol
147.6 K | 133 J/K/mol | –
